Data on ten compounds can be found in EP4415826B1, “SYNTHESIS AND IN VITRO ANTITUMOR ACTIVITIES OF NOVEL THIOAMIDE SUBSTITUTED PIPERAZINYL-1,2,4-TRIAZINES” (Istanbul Medipol Universitesi, priority 2021, dated 2023).

What is called IC50 is the concentration that inhibits the measured activity by half. Low readings indicate greater potency, high ones weaker potency. A word on the inhibition: it is the percentage by which the read-out fell short of the control. Lower therefore signals little suppression.

What all share (type): cell-based
One assay concerns U87MG glioblastoma. The assay is described as follows: MTT cell viability assay, U87MG. Conditions: 24 hours incubation. As to the method:
(§1) In order to assess the viability of the cells MTT […] assay was applied. Initially cells were seeded in the 96-well plates (VWR- 10062900) at a density of 10,000 cells/well and incubated in a cell culture incubator at 37 °C with 5% CO2 for 24 hours. Then, the cells were incubated with the tested compounds at the concentration of 100µM, 50µM, 25µM and 12.5µM for 24 hours. After completion of incubation in molecules, all media were removed and 50 µl MTT (Gold Biotechnology T-030) solution was added to each well and the plates were incubated for an additional 3 hours, followed by addition of 150 µl of MTT solubilization mixture containing 0.1% Triton X-100 (Cat. No:A4025, Biomatik, USA ) and 4mM HCI (Cat. No:07102, Sigma-Aldrich, Germany) in isopropanol(Cat. No:278475, Sigma-Aldrich, Germany). The solution was slowly mixed for 15 minutes to dissolve the MTT formazan crystals and the absorbance of each well was measured with HIDEX Sense Microplate Reader(Cat. No:425-301, HIDEX, Finland) at the wavelength of 570 nm.
A general note: Tetrazolium assays rely on reduction of a dye to a coloured formazan, in cell work by metabolically active cells.

The next assay has as its system SH-SY5Y neuroblastoma. The assay is described as follows: MTT cell viability assay, SH-SY5Y. Conditions: 24 hours incubation; for inhibition at 50 µM: Homo sapiens, SH-SY5Y. The method, then: (§2) In the study, […] cell lines were purchased and used: SH-SY5Y(CRL-2266, ATCC, USA), C6 Glioma(CCL-107, ATCC, USA) and HEK293(CRL-1573, ATCC, USA). All cells were cultured and propagated in Dulbecco's Modified Eagle's Medium - high glucose (Cat. No:41966029, Gibco, USA), containing 10% (v/v) Foetal Bovine Serum (Cat. No:10500064, Gibco, USA), […] (10,000 U/mL)(Cat. No:15140122, Gibco, USA).
as §1

In the next assay the test system is C6 glioma. The assay is described as follows: MTT cell viability assay, C6. The conditions noted are these: 24 hours incubation; for inhibition at 50 µM: C6 glioma. As to the method: as §2, §1
The test system of another assay is NIH-3T3. The assay is described as follows: MTT cell viability assay, NIH-3T3 healthy cell line. The method, then: as §1
In the next assay the test system is HEK293. Description: MTT cell viability assay, HEK293 healthy cell line. Conditions: for inhibition at 50 µM: Homo sapiens, HEK293, 24 hours incubation. As to the method: as §2, §1
For a further assay, the system named is MCF7 breast tumor. The assay is described as follows: MTT cell viability assay, MCF7. As to the method: as §1
Setting [1] is: Mus musculus, NIH3T3, 24 hours incubation.
[2] abbreviates: Homo sapiens, MCF7, 24 hours incubation.

As for `S=C(Nc1ccc(Cl)cc1)N1CCN(c2nnc(-c3ccccc3)c(-c3ccccc3)n2)CC1` [Compound 1f, N-(4-chlorophenyl)-4-(5,6-diphenyl-1,2,4-triazin-3-yl)piperazine-1-carbothioamide], the IC50 with U87MG glioblastoma (Homo sapiens, U-87 MG) is 59.1 µM; in the assay on NIH-3T3 (setting [1]), 65.3 µM. In addition, the results for the inhibition at 50 µM in the assay on SH-SY5Y neuroblastoma, in the assay with C6 glioma and in the assay on HEK293 were 94.1%, 66.6% and 73.6%, respectively.

Consider `S=C(Nc1ccccc1)N1CCN(c2nnc(-c3ccc(Cl)cc3)c(-c3ccc(Cl)cc3)n2)CC1` [Compound 1h, 4-(5,6-bis(4-chlorophenyl)-1,2,4-triazin-3-yl)-N-phenylpiperazine-1-carbothioamide], for which the inhibition at 50 µM came to 87.9% in the assay with SH-SY5Y neuroblastoma, 77.9% with C6 glioma and 87.4% in the assay with HEK293. Besides, the IC50 was 40.2 µM in the assay on NIH-3T3 (setting [1]) and 77.2 µM in the assay with MCF7 breast tumor (setting [2]).

Consider `N.N.[Cl][Pt][Cl]` [Cisplatin, reference compound], for which the IC50 in the assay with U87MG glioblastoma came out at 10 µM; in the assay on NIH-3T3 (24 hours incubation), 2.05 µM; in the assay on MCF7 breast tumor (24 hours incubation) it was 3.55 µM. Besides, the “% inhibition (50 uM) SH-SY5Y” value with SH-SY5Y neuroblastoma was found to be 97.80%. The “% inhibition (50 uM) C6” value in the assay with C6 glioma turned out to be 79.02%. Also, the “% inhibition (50 uM) HEK293” value in the assay on HEK293 (24 hours incubation) is 52.60%.

Regarding `S=C(Nc1ccccc1)N1CCN(c2nnc(-c3ccccc3)c(-c3ccccc3)n2)CC1` [Compound 1b, 4-(5,6-diphenyl-1,2,4-triazin-3-yl)-N-phenylpiperazine-1-carbothioamide], the IC50 stood at 46 µM in the assay on U87MG glioblastoma (Homo sapiens, U-87 MG) and 42.6 µM in the assay on NIH-3T3 (setting [1]). Also, the values for the inhibition at 50 µM with SH-SY5Y neuroblastoma, in the assay with C6 glioma and in the assay on HEK293 were 84.9%, 86.1% and 96.1%, respectively.

For the compound `COc1ccc(-c2nnc(N3CCN(C(=S)Nc4ccccc4)CC3)nc2-c2ccc(OC)cc2)cc1` [Compound 1g, 4-(5,6-bis(4-methoxyphenyl)-1,2,4-triazin-3-yl)-N-phenylpiperazine-1-carbothioamide], the IC50 came to 68.1 µM in the assay with U87MG glioblastoma (Homo sapiens, U-87 MG); 76 µM in the assay with NIH-3T3 (setting [1]); 91.2 µM in the assay with MCF7 breast tumor (setting [2]). In addition, the inhibition at 50 µM with SH-SY5Y neuroblastoma is 46.2%; in the assay on C6 glioma, 63.7%; in the assay on HEK293, 97.4%.

As to `S=C(Nc1ccc(Cl)cc1)N1CCN(c2nnc(-c3ccc(Cl)cc3)c(-c3ccc(Cl)cc3)n2)CC1` [Compound 1i, 4-(5,6-bis(4-chlorophenyl)-1,2,4-triazin-3-yl)-N-(4-chlorophenyl)piperazine-1-carbothioamide], the IC50 stood at 98.6 µM in the assay on U87MG glioblastoma (Homo sapiens, U-87 MG) and 81.5 µM with NIH-3T3 (setting [1]). The inhibition at 50 µM is 83.6% with SH-SY5Y neuroblastoma, 78.3% in the assay on C6 glioma and 68.4% in the assay on HEK293.

For `CCNC(=S)N1CCN(c2nnc(-c3ccccc3)c(-c3ccccc3)n2)CC1` [Compound 1a, 4-(5,6-diphenyl-1,2,4-triazin-3-yl)-N-ethylpiperazine-1-carbothioamide], the IC50 in the assay with U87MG glioblastoma (Homo sapiens, U-87 MG) was found to be 29.7 µM; in the assay with NIH-3T3 (setting [1]), 33.2 µM; in the assay with MCF7 breast tumor (setting [2]), 62.8 µM. The inhibition at 50 µM in the assay with SH-SY5Y neuroblastoma came out at 47.3%; with C6 glioma it was 37.1%; in the assay with HEK293, 97.3%.

For the compound `O=[N+]([O-])c1ccc(NC(=S)N2CCN(c3nnc(-c4ccccc4)c(-c4ccccc4)n3)CC2)cc1` [Compound 1e, 4-(5,6-diphenyl-1,2,4-triazin-3-yl)-N-(4-nitrophenyl)piperazine-1-carbothioamide], the inhibition at 50 µM came out at 21.9% with SH-SY5Y neuroblastoma, 94.4% in the assay with C6 glioma and 95.9% in the assay with HEK293.

Regarding `Cc1ccc(NC(=S)N2CCN(c3nnc(-c4ccccc4)c(-c4ccccc4)n3)CC2)cc1` [Compound 1c, 4-(5,6-diphenyl-1,2,4-triazin-3-yl)-N-(p-tolyl)piperazine-1-carbothioamide], the inhibition at 50 µM turned out to be 61.6% with SH-SY5Y neuroblastoma, 46.8% in the assay with C6 glioma and 92.6% in the assay with HEK293. In addition, in the assay on MCF7 breast tumor (setting [2]), the IC50 was determined as 73.1 µM.

As to `COc1ccc(NC(=S)N2CCN(c3nnc(-c4ccccc4)c(-c4ccccc4)n3)CC2)cc1` [Compound 1d, 4-(5,6-diphenyl-1,2,4-triazin-3-yl)-N-(4-methoxyphenyl)piperazine-1-carbothioamide], the half-inhibitory concentration (IC50) with U87MG glioblastoma (Homo sapiens, U-87 MG) came to 55 µM; in the assay on MCF7 breast tumor (setting [2]), 61.6 µM. Also, the inhibition at 50 µM amounted to 68% in the assay with SH-SY5Y neuroblastoma, 93.3% in the assay on C6 glioma and 98% with HEK293.
